Data as given in patent USRE49128E1, “Hydroxyl purine compounds and applications thereof” (GUANGDONG RAYNOVENT BIOTECH CO., LTD., priority 2014, dated 2022).

What was measured:
[1] = Pharmacokinetic evaluation of compounds in SD rats; assay type: in vivo, Sprague Dawley rats; details: single intravenous injection and oral administration; for bioavailability / clearance / AUC / half-life: male, Sprague-Dawley, rat, plasma; for bioavailability: read-out: Bioavailability F; for clearance: read-out: Clearance rate; for AUC: read-out: Concentration integration AUC; for half-life: read-out: Half-life T1/2 (converted)
Procedure: Experimental objective: The pharmacokinetics of test compounds in SD rats.
Sprague Dawley rats (male, 200-300 g, 7-9 weeks old, Shanghai Slack).
The pharmacokinetic characteristics of rodents after intravenous and oral administration of the compounds were tested according to the standard protocol, in the experiment, the candidate compound was formulated into a clear solution, and the rats were given single intravenous injection and oral administration. Intravenous and oral solvents are a certain proportion of hydroxypropyl βcyclodextrin aqueous solution or physiological saline solution. Blood samples within 24 hours were collected, centrifuged (3000 g) for 15 minutes, the supernatant were separated to obtain the plasma samples, the protein was precipitated by adding a 4 times volume of acetonitrile solution that containing the internal standard, centrifuged and the supernatant was then centrifuged after adding equal volume of water, then the supernatant was injected, the plasma concentration was quantitatively analyzed by LC-MS/MS analysis, and pharmacokinetics parameters such as peak concentration, peak time, clearance rate, half-life, drug area under the curve, bioavailability etc. are calculated.

[2] = molecular target: T1, recombinant full-length PDE2A protein (Homo sapiens, UniProt O00408); experiment: Evaluation of PDE2 phosphodiesterase inhibitory activity in vitro (fluorescence polarization, Transcreener AMP2/GMP2); assay type: biochemical; details: IC50 classes; substrate 1 μM cGMP; room temperature one hour
T1 construct: Expression of recombinant full-length PDE2A protein in insect Sf9 cells; GST (N); made in house; host or cells: insect Sf9 cells (baculovirus)
T1 sequence (O00408 whole entry, species assumed): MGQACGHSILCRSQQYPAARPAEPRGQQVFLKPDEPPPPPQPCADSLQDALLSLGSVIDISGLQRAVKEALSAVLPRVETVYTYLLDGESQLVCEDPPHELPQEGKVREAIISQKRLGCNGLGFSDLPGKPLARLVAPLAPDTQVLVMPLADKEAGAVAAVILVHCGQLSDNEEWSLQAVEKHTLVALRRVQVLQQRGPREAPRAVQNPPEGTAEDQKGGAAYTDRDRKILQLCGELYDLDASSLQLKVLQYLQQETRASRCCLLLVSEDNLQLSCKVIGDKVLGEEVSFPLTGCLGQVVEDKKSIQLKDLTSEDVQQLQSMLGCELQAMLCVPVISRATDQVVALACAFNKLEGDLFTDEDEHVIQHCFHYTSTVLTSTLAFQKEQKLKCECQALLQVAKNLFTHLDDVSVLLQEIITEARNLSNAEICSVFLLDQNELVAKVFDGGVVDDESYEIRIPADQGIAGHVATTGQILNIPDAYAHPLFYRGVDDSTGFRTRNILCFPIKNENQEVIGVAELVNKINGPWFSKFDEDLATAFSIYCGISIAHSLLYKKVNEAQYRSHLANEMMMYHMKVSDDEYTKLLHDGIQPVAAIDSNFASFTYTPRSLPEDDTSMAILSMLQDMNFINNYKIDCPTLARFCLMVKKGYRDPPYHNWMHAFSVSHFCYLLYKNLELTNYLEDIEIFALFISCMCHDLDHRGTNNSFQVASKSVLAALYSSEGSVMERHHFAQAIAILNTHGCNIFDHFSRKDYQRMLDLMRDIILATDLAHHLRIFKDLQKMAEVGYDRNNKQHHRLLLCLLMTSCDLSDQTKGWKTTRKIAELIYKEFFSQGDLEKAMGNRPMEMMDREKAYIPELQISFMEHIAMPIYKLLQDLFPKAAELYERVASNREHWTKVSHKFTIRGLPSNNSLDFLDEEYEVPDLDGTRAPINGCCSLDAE
Procedure: Experimental objective: The substituted Alexa Fluor 633 fluorescent dye on the AMP/GMP antibodies was detected by the fluorescence polarization analysis to determine the concentration of AMP/GMP produced in the reaction system, which was used to calculate the IC50 values of the test compounds against PDE2 phosphodiesterase.
The measured buffer solution: 10 mM Tris-HCl, pH 7.5, 5 mM MgCl2, 0.01% Brij 35, 1 mM DTT, and 1% DMSO.
Enzyme: Expression of recombinant full-length PDE2A protein in insect Sf9 cells using N-terminal GST-tag with baculovirus.
Transcreener® AMP^2/GMP^2 antibody, AMP2/GMP2 AlexaFluor 633 fluorescent dye.
The enzyme solution was prepared using freshly prepared buffer solution, and then added to the reaction holes, the DMSO solutions of the test compounds were added by the Echo550 non-contact nanoliter acoustic pipetting system, and then pre-incubated at room temperature for 10 minutes, the reaction was initiated by the addition of the substrate (1 μM cGMP), and then reacted at room temperature for one hour. And then the detection system (Transcreener® AMP^2/GMP^2 antibody, AMP2/GMP2 AlexaFluor 633 fluorescent dye) was added, reacted at room temperature for 90 minutes, the fluorescence polarization was detected using Ex/Em 620/688.
The fluorescence polarization intensity was converted to nM concentration by AMP/GMP standard curve, The relative enzyme activity relative to DMSO blank was calculated, IC50 values and curves were calculated using Prism software packages (GraphPad Software, San Diego Calif., USA).

[3] = system: TNF-α; experiment: Effect of compounds on TNF-α in LPS-induced blood of rats in vitro (ELISA); assay type: cell-based, Sprague Dawley rats; details: compound 100 μM; LPS-induced rat blood, 5 hours; plasma TNF-α by ELISA; read-out: TNF-α inhibition ratio
Procedure: Experimental objective: Detect the effects of compounds on TNF-α in LPS-induced blood of rats in vitro, evaluate the inhibitory effect of the compounds on TNF-α in LPS-induced blood of rats.
Sprague Dawley rats (male, 210-260 g, 8-10 weeks old, Shanghai Slack);
Rat TNF-alpha Quantikine ELISA Kit (R&D, #SRTA00).
Test compounds solutions with a concentration of 1 mM were prepared, 40 μL of which (the final concentration of the compound was 100 μM) was respectively added to 48-hole cell culture plates. Rats were anesthetized with isoflurane, heart blood was collected (heparin was used to anticoagulation). The blood was added to the 48-hole plates holding the test compounds, 320 μL per hole. The 48-hole plates were placed in a cell incubator and incubated for 30 minutes, 40 μL LPS solution was added (100 μg/mL), mixed and placed in the incubator and continued to incubate. the 48-hole plates was taken out after 5 hours, the blood samples were transferred to 1.5 mL centrifuge tubes, centrifuged in a centrifuge (4,500 rpm, 4° C., 5 minutes), the upper plasma were separated, frozen after storage and stored in a refrigerator at −80° C. The levels of TNF-α in plasma samples were measured using the R & D ELISA kit according to the kit instructions the nest day.

Row | Compound | bioavailability [1] [%] | clearance [1] [mL/min/kg] | AUC [1] [µM·h] | half-life [1] [h] | IC50 [2] [µM] | inhibition at 100 µM [3] [%] | Bioavailability F [1] [%] | Clearance rate [1] [mL/min/kg] | Concentration integration AUC [1] [µM·h] | Half-life T1/2 [1] [h]
1 | Cn1c(=O)n(CC2CCC(O)(C(F)(F)F)CC2)c(=O)c2c1ncn2CC(F)(F)F (single isomer, unassigned) [Embodiment 45 isomer 2, 1-((4-Hydroxy-4-(trifluoromethyl)cyclohexyl)methyl)-3-methyl-7-(2,2,2-trifluoroethyl)-1H-purine-2,6(3H,7H)-dione] | 17.1 | 58.4 | 1.29 | 6.19 | 1 to 10 |  |  |  |  | 
2 | Cn1c(=O)n(CC2CCC(C)(O)CC2)c(=O)c2c1ncn2CC1CC1 (single isomer, unassigned) [Embodiment 51 isomer 2] | 47.9 | 54.4 | 4.39 | 0.793 | 1 to 10 | 80 to 100 |  |  |  | 
3 | CC(C)Cn1cnc2c1c(=O)n(CC1CCC(O)(C(F)(F)F)CC1)c(=O)n2C (single isomer, unassigned) [Embodiment 58 isomer 2, 1-((4-Hydroxy-4-(trifluoromethyl)cyclohexyl)methyl)-7-isobutyl-3-methyl-1H-purine-2,6(3H,7H)-dione] | 42.6 | 71.6 | 2.49 | 0.56 |  |  |  |  |  | 
4 | C[C@H](O)CNCCn1c(=O)c2c(ncn2C)n(C)c1=O [Embodiment 40, (S)-1-(2-((2-Hydroxypropyl)amino)ethyl)-3,7-dimethyl-1H-purine-2,6(3H,7H)-dione] |  |  |  |  |  | 60 to 80 |  |  |  | 
5 | Cn1cnc2c1c(=O)n(Cc1ccc(C(C)(O)C(F)(F)F)nc1)c(=O)n2C (stereo not shown) [Embodiment 28] | 149 | 12.9 | 51.2 | 2.27 | 1 to 10 |  |  |  |  | 
6 | Cn1cnc2c1c(=O)n(Cc1ccc(C(C)(O)C(F)(F)F)cc1)c(=O)n2C (stereo not shown) [Embodiment 27] | 33.8 | 13.6 | 11.4 | 2.96 | 1 to 10 | 60 to 80 |  |  |  | 
7 | CCC(O)(CC)CCCCn1c(=O)c2c(ncn2C)n(C)c1=O [Embodiment 2, 1-(5-Ethyl-5-hydroxyheptyl)-3,7-dimethyl-1H-purine-2,6(3H,7H)-dione] | 34.2 | 63.6 | 0.902 | 0.481 | 1 to 10 |  |  |  |  | 
8 | Cn1c(=O)n(CC2CCC(O)(C(F)(F)F)CC2)c(=O)c2c1ncn2CC1CC1 (single isomer, unassigned) [Embodiment 50 isomer 2, 7-(Cyclopropylmethyl)-1-((4-hydroxy-4-(trifluoromethyl)cyclohexyl)methyl)-3-methyl-1H-purine-2,6(3H,7H)-dione] | 42.6 | 71.6 | 2.49 | 0.56 | < 1 | 80 to 100 |  |  |  | 
9 | Cn1cnc2c1c(=O)n(CC1CCC(O)(C(F)(F)F)CC1)c(=O)n2C (single isomer, unassigned) [Embodiment 12 isomer 1] |  |  |  |  | 10 to 50 | 60 to 80 |  |  |  | 
10 | Cn1c(=O)n(Cc2ccc(C(C)(O)C(F)(F)F)nc2)c(=O)c2c1ncn2CC1CC1 (stereo not shown) [Embodiment 55, 7-(Cyclopropylmethyl)-3-methyl-1-((6-(1,1,1-trifluoro-2-hydroxypropan-2-yl)pyridin-3-yl)methyl)-1H-purine-2,6-(3H,7H)-dione] | 95.8 | 21.5 | 17.8 | 2.18 | < 1 | 80 to 100 |  |  |  | 
11 | Cn1cnc2c1c(=O)n(CC1CCC(O)(C(F)(F)F)CC1)c(=O)n2C (single isomer, unassigned) [Embodiment 12 isomer 2] | 34.1 | 41 | 3.85 | 1.6 | 1 to 10 |  |  |  |  | 
12 | Cn1cnc2c1c(=O)n(C[C@H]1CC[C@](O)(C(F)(F)F)CC1)c(=O)n2C [Embodiment 12, 1-(((1S,4S)-4-Hydroxy-4-(trifluoromethyl)cyclohexyl)methyl)-3,7-dimethyl-1H-purine-2,6(3H,7H)-dione] |  |  |  |  |  |  | 41.2 | 32.7 | 5.863 | 3.12
13 | Cn1c(=O)n(CC2CCC(O)(C(F)(F)F)CC2)c(=O)c2c1ncn2CC(F)(F)F (stereo not shown) [Embodiment 44, 1-((4-Hydroxy-4-(trifluoromethyl)cyclohexyl)methyl)-3-methyl-7-(2,2,2-trifluoroethyl)-1H-purine-2,6(3H,7H)-dione] |  |  |  |  | 1 to 10 | 80 to 100 |  |  |  | 
14 | Cn1cnc2c1c(=O)n(CC1CCC(O)(C(F)(F)F)CC1)c(=O)n2C (stereo not shown) [Embodiment 11, 1-((4-Hydroxy-4-(trifluoromethyl)cyclohexyl)methyl)-3,7-dimethyl-1H-purine-2,6(3H, 7H)-dione] |  |  |  |  | 10 to 50 | 60 to 80 |  |  |  | 
15 | Cn1c(=O)n(CC2CCC(O)(C(F)(F)F)CC2)c(=O)c2c1ncn2CC1CC1 (stereo not shown) [Embodiment 49, 7-(Cyclopropylmethyl)-1-((4-hydroxy-4-(trifluoromethyl)cyclohexyl)methyl)-3-methyl-1H-purine-2,6(3H,7H)-dione] |  |  |  |  | 1 to 10 | 80 to 100 |  |  |  | 
16 | Cn1cnc2c1c(=O)n(CCCCC(C)(O)C(F)(F)F)c(=O)n2C (stereo not shown) [Embodiment 1, 3,7-Dimethyl-1-(6,6,6-trifluoro-5-hydroxy-5-methylhexyl)-1H-purine-2,6(3H,7H)-dione] | 59.7 | 54.7 | 1.91 | 0.659 | 10 to 50 | 60 to 80 |  |  |  | 
